Results from US6440995B1, “Quinolin-4-yl derivatives” (Hoffman-La Roche Inc., priority 1999, dated 2002).
Where a name gives a salt, the structure may show the parent alone.

test system: not given; test: not given; conditions: not given

melting point [°C] | SMILES
264 to 267 | Cc1ccc(-c2cc(NC[C@H](C)O)c3ccc(C)cc3n2)cc1.Cl
236 to 242 | C[C@H](O)CNc1cc(-c2ccc3c(c2)CCO3)nc2ccccc12.Cl
262 to 264 | Cl.OCCNc1cc(-c2ccc(Cl)cc2)nc2ccccc12
233 to 238 | COc1ccc(-c2cc(NCCO)c3ccc(C)cc3n2)cc1.Cl
205 to 209 | COc1cccc2c(NCCO)cc(-c3ccccc3)nc12.Cl
260 to 263 | Cc1ccc(-c2cc(NCCO)c3ccc(C)cc3n2)cc1.Cl
170 to 174 | CCNCC(O)COc1cc(-c2ccccc2)nc2ccccc12.Cl (stereo not shown)
146 to 150 | CNCC(O)COc1cc(-c2ccc(C)cc2)nc2cc(C)ccc12 (racemic)
192 to 193 | CNCC(O)COc1cc(-c2ccccc2)nc2cc(Cl)ccc12.Cl (racemic)
236 to 238 | CNCC(O)COc1cc(-c2ccsc2)nc2ccccc12.Cl (racemic)
220 to 222 | O=C(O)/C=C/C(=O)O.OCC(O)CNc1cc(/C=C/c2ccccc2)nc2ccccc12 (racemic)
230 to 231 | Cc1ccc(-c2cc(NCC(O)CO)c3ccccc3n2)cc1Cl.Cl (racemic)
283 to 287 | Cl.Cl.NCC(O)CNc1cc(-c2ccc(Cl)cc2)nc2ccccc12 (racemic)
295 to 301 | Cl.OCC(O)CNc1cc(N2Cc3ccccc3C2)nc2ccccc12 (racemic)
291 to 294 | Cl.NCC(O)CNc1cc(-c2ccccc2)nc2ccccc12 (racemic)
110 to 116 | COc1cccc2c(NCC(O)CO)cc(-c3ccccc3)nc12.Cl (racemic)
263 to 265 | Cl.OCC(O)CNc1cc(-c2cc3ccccc3o2)nc2ccccc12 (racemic)
208 to 215 | Cc1cccc(-c2cc(NCC(O)CO)c3ccccc3n2)c1.Cl (racemic)
283 to 287 | NCC(O)CNc1cc(-c2ccc(Cl)cc2)nc2ccccc12 (racemic)
225 to 227 | Cl.OCC(O)CNc1cc(-c2ccccc2)nc2ccccc12 (racemic)
251 to 253 | CC(O)CNc1cc(-c2ccccc2)nc2ccccc12.Cl (racemic)
143 to 145 | Cl.OCC(O)CNc1cc(CCc2ccccc2)nc2ccccc12 (racemic)
109 to 111 | CC(C)NCC(O)COc1cc(-c2ccccc2)nc2ccccc12 (racemic)
140 to 142 | CNCC(O)COc1cc(-c2ccc(OC)cc2)nc2cc(C)ccc12 (racemic)

SMILES | melting point [°C]
OCC(O)CNc1cc(-c2ccc3c(c2)CCO3)nc2ccccc12 (racemic) (as salt: hydrochloride) [Example 32, (RS)-3-[2-(2,3-Dihydro-benzofuran-5-yl)-quinolin-4-ylamino]-propane-1,2-diol hydrochloride] | 267 to 270
Cc1ccc(-c2cc(NCC(O)CN)c3ccccc3n2)cc1.Cl (racemic) [Example 2, (RS)-1-Amino-3-(2-p-tolyl-quinolin-4-ylamino)-propan-2-ol hydrochloride] | 264 to 272
Cl.OCCNc1cc(-c2ccc3c(c2)CCCC3)nc2ccccc12 [Example 18, 2-[2-(5,6,7,8-Tetrahydro-naphthalen-2-yl)-quinolin-4-ylamino]-ethanol hydrochloride] | 250 to 252
COc1ccc(-c2cc(N(C)CCO)c3ccccc3n2)cc1.Cl [Example 46, 2-{[2-(4-Methoxy-phenyl)-quinolin-4-yl]-methyl-amino}-ethanol hydrochloride] | 201 to 204

target: T1, NMDA receptor (Rattus norvegicus, UniProt P35439+Q00960); test: 3H-Ro 25-6981 binding (displacement, rat brain membranes); conditions: displacement of 5 nM 3H-Ro 25-6981; rat whole brain minus cerebellum and medulla oblongata membranes; 2 hours at 4° C., pH 7.4
T1 construct: Membranes were prepared by homogenization of the whole brain minus cerebellum and medulla oblongata; from tissue; host or cells: rat whole brain minus cerebellum and medulla oblongata, membranes
Procedure: 3H-Ro 25-6981 binding (Ro 25-6981 is [R-(R*,S*)]-a-(4-Hydroxy-phenyl)-b-methyl-4-(phenyl-methyl)-1-piperidine propanol)
Male Füllinsdorf albino rats weighing between 150-200 g were used. Membranes were prepared by homogenization of the whole brain minus cerebellum and medulla oblongata with a Polytron (10 000 rpm, 30 seconds), in 25 volumes of a cold Tris-HCl 50 mM, EDTA 10 mM, pH 7.1 buffer. The homogenate was centrifuged at 48.000 g for 10 minutes at 4° C. The pellet was resuspended using the Polytron in the same volume of buffer and the homogenate was incubated at 37° C. for 10 minutes. After centrifugation the pellet was homogenized in the same buffer and frozen at −80° C. for at least 16 hours but not more than 10 days. For the binding assay the homogenate was thawed at 37° C., centrifuged and the pellet was washed three times as above in a Tris-HCl 5 mM, pH 7.4 cold buffer. The final pellet was resuspended in the same buffer and used at a final concentration of […].
3H-Ro 25-6981 binding experiments were performed using a Tris-HCl 50 mM, pH 7.4 buffer. For displacement experiments 5 nM of 3H-Ro 25-6981 were used and non specific binding was measured using 10 mM of tetrahydroisoquinoline and usually it accounts for 10% of the total. The incubation time was 2 hours at 4° C. and the assay was stopped by filtration on Whatmann GF/B glass fiber filters (Unifilter-96, Packard, Zürich, Switzerland). The filters were washed 5 times with cold buffer. The radioactivity on the filter was counted on a Packard Top-count microplate scintillation counter after addition of […] of microscint 40 (Canberra Packard S.A., Zürich, Switzerland).
The effects of compounds were measured using a minimum of 8 concentrations and repeated at least once. The pooled normalized values were analyzed using a non-linear regression calculation program which provide IC50) with their relative upper and lower 95% confidence limits (RS1, BBN, USA).

T1 sequence (Q00960 27-1482, other chains not shown): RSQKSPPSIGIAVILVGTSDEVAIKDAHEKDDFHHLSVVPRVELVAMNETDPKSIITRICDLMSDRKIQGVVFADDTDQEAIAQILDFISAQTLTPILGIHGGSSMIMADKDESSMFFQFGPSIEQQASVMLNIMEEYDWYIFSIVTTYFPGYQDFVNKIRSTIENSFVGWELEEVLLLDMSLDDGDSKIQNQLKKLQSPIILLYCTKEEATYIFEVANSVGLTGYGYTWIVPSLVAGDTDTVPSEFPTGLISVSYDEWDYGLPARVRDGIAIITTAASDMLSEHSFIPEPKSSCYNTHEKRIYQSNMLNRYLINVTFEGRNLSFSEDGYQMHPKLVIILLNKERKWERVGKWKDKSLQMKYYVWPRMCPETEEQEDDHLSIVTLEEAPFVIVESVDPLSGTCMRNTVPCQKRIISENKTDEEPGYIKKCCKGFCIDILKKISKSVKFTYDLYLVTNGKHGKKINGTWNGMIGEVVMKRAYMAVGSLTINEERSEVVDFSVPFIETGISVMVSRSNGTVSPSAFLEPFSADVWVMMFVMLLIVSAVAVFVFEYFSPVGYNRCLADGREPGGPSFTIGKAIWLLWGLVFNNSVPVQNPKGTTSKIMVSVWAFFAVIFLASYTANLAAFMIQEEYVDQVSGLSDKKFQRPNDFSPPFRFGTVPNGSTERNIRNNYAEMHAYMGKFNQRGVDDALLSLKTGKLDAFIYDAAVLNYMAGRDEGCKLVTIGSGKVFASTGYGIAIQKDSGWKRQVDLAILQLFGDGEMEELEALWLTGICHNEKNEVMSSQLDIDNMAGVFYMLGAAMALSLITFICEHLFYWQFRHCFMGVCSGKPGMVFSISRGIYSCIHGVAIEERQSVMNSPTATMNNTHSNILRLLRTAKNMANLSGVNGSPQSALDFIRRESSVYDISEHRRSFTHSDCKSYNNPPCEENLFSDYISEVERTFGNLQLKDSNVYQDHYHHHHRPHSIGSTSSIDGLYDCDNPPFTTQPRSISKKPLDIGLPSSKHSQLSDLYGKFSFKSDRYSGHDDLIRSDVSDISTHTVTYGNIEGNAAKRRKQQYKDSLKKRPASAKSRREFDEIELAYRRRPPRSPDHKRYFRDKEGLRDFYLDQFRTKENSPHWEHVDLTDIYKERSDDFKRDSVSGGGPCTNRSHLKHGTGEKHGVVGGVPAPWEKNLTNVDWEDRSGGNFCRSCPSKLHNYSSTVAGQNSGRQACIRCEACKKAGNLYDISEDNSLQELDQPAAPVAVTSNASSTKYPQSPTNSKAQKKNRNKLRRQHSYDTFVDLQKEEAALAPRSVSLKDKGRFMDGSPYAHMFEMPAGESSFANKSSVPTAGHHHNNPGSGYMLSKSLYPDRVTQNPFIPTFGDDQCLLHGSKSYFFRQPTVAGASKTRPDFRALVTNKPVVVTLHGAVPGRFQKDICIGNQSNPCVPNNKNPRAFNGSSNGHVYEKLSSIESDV

SMILES | IC50 [nM]
Cc1ccc(-c2cc(NCC(O)CN)c3ccccc3n2)cc1.Cl (racemic) [Example 2, (RS)-1-Amino-3-(2-p-tolyl-quinolin-4-ylamino)-propan-2-ol hydrochloride] | 20
NCC(O)CNc1cc(N2CCc3ccccc3C2)nc2ccccc12 (racemic) [Example 10, (RS)-1-Amino-3-[2-(3,4-dihydro-1H-isoquinolin-2-yl)-quinolin-4-ylamino]-propan-2-ol hydrochloride] | 30
OCC(O)CNc1cc(-c2ccc3c(c2)CCO3)nc2ccccc12 (racemic) [Example 32, (RS)-3-[2-(2,3-Dihydro-benzofuran-5-yl)-quinolin-4-ylamino]-propane-1,2-diol hydrochloride] | 66
CNCC(O)CNc1cc(-c2ccc(OC)cc2)nc2ccccc12 (racemic) [Example 77, (RS)-1-[2-(4-Methoxy-phenyl)-quinolin-4-ylamino]-3-methylamino-propan-2-ol hydrochloride] | 58
Cl.OCCNc1cc(-c2ccc3c(c2)CCCC3)nc2ccccc12 [Example 18, 2-[2-(5,6,7,8-Tetrahydro-naphthalen-2-yl)-quinolin-4-ylamino]-ethanol hydrochloride] | 40
COc1ccc(-c2cc(N(C)CCO)c3ccccc3n2)cc1.Cl [Example 46, 2-{[2-(4-Methoxy-phenyl)-quinolin-4-yl]-methyl-amino}-ethanol hydrochloride] | 130
